Measured values taken from paper PMC9430770 (Microbiology Spectrum, 2022).

Legend:
[1] = system: C. albicans SC5314; assay: Spot assay on solid YPD or YPG plates containing BE; format: cell-based, Candida albicans; settings: 48 h, 30°C
Experimental: To test whether BE antifungal activity in C. albicans as well as in mammalian cells was carbon source dependent ([27]), we investigated the activity of BE in spot assays on both solid yeast extract-peptone-dextrose (YPD) (containing 20 mg/mL glucose) and solid YPG (containing 2% [vol/vol] glycerol) media.
FIG 1 The antifungal activity of BE depends on the carbon source. The overnight-cultured C. albicans SC5314 cells were diluted to 1 × 10^7 cells/mL and used as the initial concentration for four times of 10-fold dilution. Subsequently, 5 μL of a 10-fold dilution series was spotted onto YPD or YPG solid plates containing the indicated different concentrations of BE. After 48 h of incubation at 30°C, pictures of the growth of cells were taken.
The spotting assay was performed as described previously ([50]). Briefly, after grown overnight, mid-log-phase cultures of strains required for experimental conditions were adjusted to 1 × 10^7 cells/mL using a hemacytometer, then were 1:10 serially diluted in sterile PBS, and were spotted onto indicated plates with an indicated concentration of BE. After 48 h of incubation at 30°C, pictures of the growth of cells were taken.

[2] = molecular target: mutant Eno1 (D263A, S269A, and K273A) (Candida albicans, UniProt P30575, D263A/K273A/S269A); assay: SPR binding of BE to mutant Eno1
Sequence of mutant Eno1 (D263A, S269A, and K273A) (P30575 whole entry D263A/S269A/K273A): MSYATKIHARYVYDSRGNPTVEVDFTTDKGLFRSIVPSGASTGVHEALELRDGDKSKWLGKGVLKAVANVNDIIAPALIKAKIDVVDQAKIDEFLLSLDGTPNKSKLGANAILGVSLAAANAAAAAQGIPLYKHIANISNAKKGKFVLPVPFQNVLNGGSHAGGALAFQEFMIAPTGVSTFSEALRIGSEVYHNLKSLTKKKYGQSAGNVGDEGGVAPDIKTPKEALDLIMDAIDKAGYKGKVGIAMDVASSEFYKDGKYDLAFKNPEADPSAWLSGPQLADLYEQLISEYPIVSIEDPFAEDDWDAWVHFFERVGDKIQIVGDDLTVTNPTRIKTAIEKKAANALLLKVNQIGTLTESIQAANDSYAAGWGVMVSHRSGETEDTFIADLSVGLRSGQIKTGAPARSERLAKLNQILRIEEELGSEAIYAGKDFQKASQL
Description: SPR, surface plasmon resonance; RU, response unit.
The benzene ring with hydroxyl group can form a cation-π interaction with K273 (Fig. 6C). To confirm that D263, S269, and K273 play crucial roles in interacting with BE, we have mutated these three amino acids (D263A, S269A, and K273A) in CaEno1.

O=c1cc(-c2ccccc2)oc2cc(O)c(O)c(O)c12 [BE, Baicalein]
antifungal activity (spot assay) ([1]; 64 μg/mL BE, solid YPD medium (20 mg/mL glucose)): had antifungal activity | antifungal activity (spot assay) ([1]; 64 μg/mL BE, solid YPG medium (2% glycerol)): not in solid YPG medium | antifungal activity (spot assay) ([1]; 128 μg/mL BE, solid YPD medium): potent antifungal activity | growth of C. albicans (spot assay) ([1]; 128 μg/mL BE, solid YPG medium): could still grow | binding detected by SPR analysis [2]: no binding
